Source: US7812022B2 (GlaxoSmithKline LLC, priority 2004, dated 2010)

Tests used:
Colo205 tumor cell lines = assay: Methylene blue growth inhibition assay (cellular Method A), Colo205; assay type: cell-based, Human; settings: Homo sapiens, COLO 205, 72 h, 3 days, read-out: Activity (Method): growth inhibition IC50 class
Protocol: Human breast (BT474) and head and neck (HN5) were cultured in low glucose DMEM (Life Technologies 12320-032) containing 10% fetal bovine serum (FBS). Human colon tumor cells (Colo205) were cultured in DMEM (Invitrogen, 10564) containing 10% FBS. The SV40 transformed human mammary epithelial cell line HB4a was transfected with either human H-ras cDNA (HB4a r4.2) or the human c-ErbB2 cDNA (HB4a c5.2). The HB4a clones were cultured in RPMI containing 10% FBS, insulin (5 g/mL), hydrocortisone (5 g/mL), supplemented with the selection agent hygromycin B (50 g/mL). All lines were grown in a humidified incubator at 37° C. in 95% air, 5% CO2. Cells were harvested using trypsin/EDTA, counted using a haemocytometer, and plated in 100 microliters of the appropriate media, at the following densities, in a 96-well tissue culture plate (Falcon 3075): BT474 10,000 cells/well, HN5 3,000 cells/well. The next day, compounds were diluted in DMEM containing […] gentamicin, at twice the final required concentration, from 10 mM stock solutions in DMSO. 100 microliters/well of these dilutions were added to the 100 microliters of media currently on the cell plates. Medium containing 0.6% DMSO was added to control wells. Compounds diluted in DMEM were added to all cell lines. The final concentration of DMSO in all wells was 0.3%. Cells were returned to the incubator (37° C., 10% CO2) for 3 days. Medium was then removed by aspiration. Cell biomass was estimated by staining cells with 90 microliters per well methylene blue (Sigma M9140, 0.5% in 1:1 ethanol:water), and incubation at rt for at least 30 minutes. Stain was removed, and the plates rinsed by immersion in deionized water and air-dried. To release stain from the cells 100 microliters of solubilization solution was added (1% N-lauroyl sarcosine, Sodium salt, Sigma L5125, in PBS), and plates were shaken gently for about 30 minutes. Optical density at 620 nm was measured on a microplate reader. Percent inhibition of cell growth was calculated relative to vehicle treated control wells. Concentration of compound that inhibits 50% of control cell growth (IC50) was interpolated using nonlinear regression (Levenberg-Marquardt) and the equation, y=Vmax*(1−(x/(K+x)))+Y2, where “K” was equal to the IC50. Method B: Celltiter Glo® Growth Inhibition Assays

ErbB2 or EGFR = target: T1, ErbB2 or EGFR; assay: ErbB family substrate phosphorylation enzyme assay (HTRF), Method A or Method B; assay type: biochemical
T1 construct: enzymes purified from a baculovirus expression system; Reagent production was conducted essentially as described in Brignola, P. S., et al, (2002) J. Biol. Chem. 277(2): 1576-1585
Procedure, shortened: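 Baculovirus-expressed EGFR or ErbB2 (0.8 or 10 nM in enzyme mix) phosphorylates biotinylated Peptide C with 20 µM ATP and 0.8 µM peptide (substrate-mix levels), MnCl2, pH 7.5. Reaction ran 90 min at 20 °C with EDTA stop and HTRF anti-phosphotyrosine read. Method A: enzyme added last; Method B: 1 h enzyme–compound preincubation.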

[1] = system: BT474 and HN5 tumor cell lines; assay: Methylene blue growth inhibition assay (cellular Method A); assay type: cell-based, Human; settings: Homo sapiens, BT-474, 72 h, 3 days, read-out: Activity (Method): growth inhibition IC50 class
Procedure, shortened: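 Growth inhibition measured by methylene blue staining of biomass (OD 620) after 3 days' compound exposure at 37° C, final DMSO 0.3%. Cell lines: BT474 (10,000/well), HN5 (3,000/well) and Colo205, all in DMEM with 10% FBS; IC50 fitted by nonlinear regression against vehicle-treated wells.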

[2] = Method A: substrate mix added first, reaction started with enzyme mix
[3] = Method B: enzyme mix pre-incubated with compound 1 hour at 20° C., started with substrate mix

What does the source list for `O=C(Nc1cccc(-c2nn3ccccc3c2-c2ccnc(Nc3ccc(N4CCOCC4)cc3)n2)c1)c1cc(F)ccc1F` [Example 45, 2,5-Difluoro-N-{3-[3-(2-{[4-(4-morpholinyl)phenyl]amino}-4-pyrimidinyl)pyrazolo[1,5-a]pyridin-2-yl]phenyl}benzamide]?
IC50 (Colo205 tumor cell lines): 100 to 1000 nM; Activity (Method): pIC50 class against ErbB2 or EGFR (ErbB2 or EGFR; [2]): +++ (A) (at least one pIC50 measurement of greater than 7 against either ErbB2 or EGFR); IC50 [1]: < 100 nM

`O=C(Nc1cccc(-c2nn3ccccc3c2-c2ccnc(Nc3cccc(CCCN4CCOCC4)c3)n2)c1)c1c(F)cccc1F` [Example 55, 2,6-Difluoro-N-(3-{3-[2-({3-[3-(4-morpholinyl)propyl]-phenyl}amino)-4-pyrimidinyl]pyrazolo[1,5-a]pyridin-2-yl}phenyl)benzamide] was tested. Which IC50 (Colo205 tumor cell lines) did it give?
Its IC50 is 100 to 1000 nM.

And the “Activity (Method): pIC50 class against ErbB2 or EGFR” value (“Activity (Method): pIC50 class” for short) (ErbB2 or EGFR; [3])?
Its value is “+++ (B) (at least one pIC50 measurement of greater than 7 against either ErbB2 or EGFR)”.

And the IC50 [1]?
Its IC50 is under 100 nM.

How did the IC50 (Colo205 tumor cell lines) turn out when `O=C(Nc1cccc(-c2nn3ccccc3c2-c2ccnc(Nc3cccc(OCCN4CCCC4)c3)n2)c1)c1c(F)cccc1F` [Example 136, 2,6-Difluoro-N-[3-(3-{2-[(3-{[2-(1-pyrrolidinyl)ethyl]oxy}phenyl)amino]-4-pyrimidinyl}pyrazolo[1,5-a]pyridin-2-yl)phenyl]benzamide] was run?
The IC50 was 100 to 1000 nM.

And the “Activity (Method): pIC50 class” value (ErbB2 or EGFR; [3])?
Its value is “+++ (B) (at least one pIC50 measurement of greater than 7 against either ErbB2 or EGFR)”.

And the IC50 [1]?
The IC50 was under 100 nM.

Which results are given for `O=C(Nc1cccc(-c2nn3ccccc3c2-c2ccnc(Nc3ccc(Cc4ccncc4)cc3)n2)c1)c1c(F)cccc1F` [Example 94]?
IC50 (Colo205 tumor cell lines): > 1000 nM; Activity (Method): pIC50 class against ErbB2 or EGFR (ErbB2 or EGFR; [2]): +++ (A) (at least one pIC50 measurement of greater than 7 against either ErbB2 or EGFR); IC50 [1]: < 100 nM

How did the IC50 (Colo205 tumor cell lines) turn out when `CN1CCN(c2cccc(Nc3nccc(-c4c(-c5cccc(NC(=O)c6c(F)cccc6F)c5)nn5ccccc45)n3)c2)CC1` [Example 109, 2,6-Difluoro-N-{3-[3-(2-{[3-(4-methyl-1-piperazinyl)-phenyl]amino}-4-pyrimidinyl)pyrazolo[1,5-a]pyridin-2-yl]phenyl}benzamide] was run?
The IC50 was 100 to 1000 nM.

What about the “Activity (Method): pIC50 class” value (ErbB2 or EGFR; [3]) of the same molecule?
Its value is “+++ (B) (at least one pIC50 measurement of greater than 7 against either ErbB2 or EGFR)”.

What about the IC50 [1] of the same molecule?
The IC50 was under 100 nM.

With `CN(C)CCCOc1cccc(Nc2nccc(-c3c(-c4cccc(NC(=O)c5c(F)cccc5F)c4)nn4ccccc34)n2)c1` [Example 198, N-[3-(3-{2-[(3-{[3-(dimethylamino)propyl]oxy}phenyl)amino]-4-pyrimidinyl}pyrazolo[1,5-a]pyridin-2-yl)phenyl]-2,6-difluorobenzamide] as the molecule, how does the IC50 (Colo205 tumor cell lines) read?
The IC50 was 100 to 1000 nM.

What about the “Activity (Method): pIC50 class” value (ErbB2 or EGFR; [3]) of the same molecule?
The value was “+++ (B) (at least one pIC50 measurement of greater than 7 against either ErbB2 or EGFR)”.

What about the IC50 [1] of the same molecule?
The IC50 was under 100 nM.

For `O=C(Nc1cc(-c2nn3ccccc3c2-c2ccnc(Nc3ccc4c(c3)CNCC4)n2)ccc1F)c1c(F)cccc1F` [Example 160, 2,6-Difluoro-N-(2-fluoro-5-{3-[2-(1,2,3,4-tetrahydro-7-isoquinolinylamino)-4-pyrimidinyl]pyrazolo[1,5-a]pyridin-2-yl}phenyl)benzamide], which IC50 (Colo205 tumor cell lines) is on record?
Its IC50 is under 100 nM.

What about the “Activity (Method): pIC50 class” value (ErbB2 or EGFR; [3]) of the same molecule?
The value was “+++ (B) (at least one pIC50 measurement of greater than 7 against either ErbB2 or EGFR)”.

What about the IC50 [1] of the same molecule?
The IC50 was under 100 nM.

How did the IC50 (Colo205 tumor cell lines) turn out when `O=C(Nc1cccc(-c2nn3ccccc3c2-c2ccnc(Nc3cccc(CCN4CCOCC4)c3)n2)c1)c1c(F)cccc1F` [Example 54, 2,6-Difluoro-N-(3-{3-[2-({3-[2-(4-morpholinyl)ethyl]-phenyl}amino)-4-pyrimidinyl]pyrazolo[1,5-a]pyridin-2-yl}phenyl)benzamide] was run?
Its IC50 is 100 to 1000 nM.

What about the “Activity (Method): pIC50 class” value (ErbB2 or EGFR; [2]) of the same molecule?
Its value is “+++ (A) (at least one pIC50 measurement of greater than 7 against either ErbB2 or EGFR)”.

What about the IC50 [1] of the same molecule?
Its IC50 is under 100 nM.

Which results are given for `COc1ccc(-c2nn3ccccc3c2-c2ccnc(Nc3cccc(CN(C)C)c3)n2)cc1NC(=O)c1c(F)cccc1F` [Example 192, N-[5-{3-[2-({3-[(dimethylamino)methyl]phenyl}amino)-4-pyrimidinyl]pyrazolo[1,5-a]pyridin-2-yl}-2-(methyloxy)phenyl]-2,6-difluorobenzamide]?
IC50 (Colo205 tumor cell lines): > 1000 nM; Activity (Method): pIC50 class against ErbB2 or EGFR (ErbB2 or EGFR; [3]): + (B) (no pIC50 measurement greater than 6 against either ErbB2 or EGFR); IC50 [1]: > 1000 nM

With `O=C(Nc1cccc(-c2nn3ccccc3c2-c2ccnc(Nc3ccc(OCCN4CCOCC4)c(Cl)c3)n2)c1)c1c(F)cccc1F` [Example 127, N-[3-(3-{2-[(3-Chloro-4-{[2-(4-morpholinyl)ethyl]-oxy}phenyl)amino]-4-pyrimidinyl}pyrazolo[1,5-a]pyridin-2-yl)phenyl]-2,6-difluorobenzamide] as the molecule, how does the IC50 (Colo205 tumor cell lines) read?
The IC50 was 100 to 1000 nM.

What about the “Activity (Method): pIC50 class” value (ErbB2 or EGFR; [3]) of the same molecule?
The value was “+++ (B) (at least one pIC50 measurement of greater than 7 against either ErbB2 or EGFR)”.

And the IC50 [1]?
The IC50 was under 100 nM.

How did the IC50 (Colo205 tumor cell lines) turn out when `O=C(Nc1cccc(-c2nn3ccccc3c2-c2ccnc(Nc3ccc(OCCCS(=O)(=O)O)c(Cl)c3)n2)c1)c1c(F)cccc1F` [Example 161, 3-{[2-Chloro-4-({4-[2-(3-{[(2,6-difluorophenyl)carbonyl]amino}-phenyl)pyrazolo[1,5-a]pyridin-3-yl]-2-pyrimidinyl}amino)phenyl]oxy}-1-propanesulfonic acid] was run?
Its IC50 is over 1000 nM.

And the “Activity (Method): pIC50 class” value (ErbB2 or EGFR; [3])?
The value was “+++ (B) (at least one pIC50 measurement of greater than 7 against either ErbB2 or EGFR)”.

What about the IC50 [1] of the same molecule?
The IC50 was over 1000 nM.

Which results are given for `O=C(NC1CC1)c1ccc(Nc2nccc(-c3c(-c4cccc(NC(=O)c5c(F)cccc5F)c4)nn4ccccc34)n2)cc1` [Example 103, N-(3-{3-[2-({4-[(cyclopropylamino)carbonyl]phenyl}-amino)-4-pyrimidinyl]pyrazolo[1,5-a]pyridin-2-yl}phenyl)-2,6-difluorobenzamide]?
IC50 (Colo205 tumor cell lines): 100 to 1000 nM; Activity (Method): pIC50 class against ErbB2 or EGFR (ErbB2 or EGFR; [3]): +++ (B) (at least one pIC50 measurement of greater than 7 against either ErbB2 or EGFR); IC50 [1]: < 100 nM

What does the source list for `CN1CCc2ccc(Nc3nccc(-c4c(-c5cccc(NC(=O)c6c(F)cccc6F)c5)nn5ccccc45)n3)cc2C1` [Example 179, 2,6-Difluoro-N-[3-(3-{2-[(2-methyl-1,2,3,4-tetrahydro-7-isoquinolinyl)amino]-4-pyrimidinyl}pyrazolo[1,5-a]pyridin-2-yl)phenyl]benzamide]?
IC50 (Colo205 tumor cell lines): 100 to 1000 nM; Activity (Method): pIC50 class against ErbB2 or EGFR (ErbB2 or EGFR; [3]): +++ (B) (at least one pIC50 measurement of greater than 7 against either ErbB2 or EGFR); IC50 [1]: < 100 nM

With `C=CCN(C)CCOc1cccc(Nc2nccc(-c3c(-c4cccc(NC(=O)c5c(F)cccc5F)c4)nn4ccccc34)n2)c1` [Example 195, 2,6-Difluoro-N-{3-[3-(2-{[3-({2-[methyl(2-propen-1-yl)amino]ethyl}oxy)phenyl]amino}-4-pyrimidinyl)pyrazolo[1,5-a]pyridin-2-yl]phenyl}benzamide] as the molecule, how does the IC50 (Colo205 tumor cell lines) read?
The IC50 was over 1000 nM.

And the “Activity (Method): pIC50 class” value (ErbB2 or EGFR; [3])?
The value was “+++ (B) (at least one pIC50 measurement of greater than 7 against either ErbB2 or EGFR)”.

What about the IC50 [1] of the same molecule?
The IC50 was 100 to 1000 nM.

What does the source list for `O=C(Nc1cccc(-c2nn3ccccc3c2-c2ccnc(Nc3ccc4nn[nH]c4c3)n2)c1)c1c(F)cccc1F` [Example 31, N-(3-{3-[2-(1H-1,2,3-benzotriazol-5-ylamino)-4-pyrimidinyl]pyrazolo[1,5-a]pyridin-2-yl}phenyl)-2,6-difluorobenzamide]?
IC50 (Colo205 tumor cell lines): 100 to 1000 nM; Activity (Method): pIC50 class against ErbB2 or EGFR (ErbB2 or EGFR; [3]): +++ (B) (at least one pIC50 measurement of greater than 7 against either ErbB2 or EGFR); IC50 [1]: < 100 nM
